Reference: ChEMBL document CHEMBL5143725, “Optimization of TEAD P-Site Binding Fragment Hit into In Vivo Active Lead MSC-4106” (J Med Chem, 2022)
The source made the active and inactive calls. No cut-off for these calls is given here.

Key:
[1] = Inhibition of cysteine-rich angiogenic inducer 61 expression in human SK-HEP1 cells incubated for 96 hrs by ELISA method; details: SK-HEP1, 96 h
[2] = Inhibition of connective tissue growth factor expression in human NCI-H226 cells incubated for 96 hrs by ELISA method; details: NCI-H226, 96 h
[3] = target: T1, Transcriptional enhancer factor TEF-5 (Homo sapiens, UniProt Q99594); experiment: Binding affinity to human TEAD3 (216 to 435 residues) expressed in Escherichia coli BL21 Star (DE3) assessed as change in melting temperature incubated for 2 hrs by measuring tryptophane fluorescence by Nano Differential scanning fluorometry
[4] = Inhibition of YAP/TAZ-TEAD interaction in human SK-HEP1 cells incubated for 24 hrs by luciferase reporter gene assay; assay type: cell-based
[5] = target: T2, Transcriptional enhancer factor TEF-4 (Homo sapiens, UniProt Q15562); experiment: Binding affinity to human TEAD2 (217 to 447 residues) expressed in Escherichia coli BL21 Star (DE3) assessed as change in melting temperature incubated for 2 hrs by measuring tryptophane fluorescence by Nano Differential scanning fluorometry
[6] = Inhibition of cysteine-rich angiogenic inducer 61 expression in human NCI-H226 cells incubated for 96 hrs by ELISA method; details: NCI-H226, 96 h
[7] = target: T3, Transcriptional enhancer factor TEF-3 (Homo sapiens, UniProt Q15561); experiment: Inhibition of pSF-CMV-P-FLAG tagged human TEAD4 palmitoylation transfected in HEK293 cells at 10 uM incubated for 6 hrs by Western blot analysis relative to control; assay type: cell-based
[8] = Inhibition of connective tissue growth factor expression in human SK-HEP1 cells incubated for 96 hrs by ELISA method; details: SK-HEP1, 96 h
[9] = target: T4, Transcriptional enhancer factor TEF-1 (Homo sapiens, UniProt P28347); experiment: Binding affinity to human TEAD1 (209 to 426 residues) expressed in Escherichia coli BL21 Star (DE3) assessed as change in melting temperature incubated for 2 hrs by measuring tryptophane fluorescence by Nano Differential scanning fluorometry
SW-620 = experiment: Cytotoxicity against YAP/TAZ knockout human SW620 cells assessed as cell viability measured for 4 days by celltiter-glo assay; details: SW-620, 96 h
NCI-H226 = experiment: In vivo antitumor activity against human NCI-H226 cells xenografted in mouse model assessed as tumor growth inhibition at 100 mg/kg, po qd measured after 32 days; assay type: functional, organism-based; details: time 32.0 day
[10] = target: T3, Transcriptional enhancer factor TEF-3; experiment: Binding affinity to human TEAD4 (217 to 434 residues) expressed in Escherichia coli BL21 Star (DE3) assessed as change in melting temperature incubated for 2 hr by measuring tryptophane fluorescence by Nano Differential scanning fluorometry
[11] = target: T1, Transcriptional enhancer factor TEF-5; experiment: Inhibition of pSF-CMV-P-FLAG tagged human TEAD3 palmitoylation transfected in HEK293 cells at 1 uM incubated for 6 hrs by Western blot analysis relative to control; assay type: cell-based
[12] = target: T4, Transcriptional enhancer factor TEF-1; details: HEK293, dose 100.0 nM, time 6.0 hrs
[13] = target: T3, Transcriptional enhancer factor TEF-3; experiment: Binding affinity to human TEAD4 (217 to 434 residues) expressed in Escherichia coli BL21 Star (DE3) by surface plasmon resonance assay
[14] = target: T2, Transcriptional enhancer factor TEF-4; experiment: Inhibition of pSF-CMV-P-FLAG tagged human TEAD2 palmitoylation transfected in HEK293 cells at 10 uM incubated for 6 hrs by Western blot analysis relative to control; assay type: cell-based
[15] = target: T1, Transcriptional enhancer factor TEF-5; experiment: Binding affinity to human TEAD3 (216 to 435 residues) expressed in Escherichia coli BL21 Star (DE3) by surface plasmon resonance assay
[16] = target: T1, Transcriptional enhancer factor TEF-5; experiment: Inhibition of pSF-CMV-P-FLAG tagged human TEAD3 palmitoylation transfected in HEK293 cells at 10 uM incubated for 6 hrs by Western blot analysis relative to control; assay type: cell-based
[17] = target: T4, Transcriptional enhancer factor TEF-1; experiment: Inhibition of pSF-CMV-P-FLAG tagged human TEAD1 palmitoylation transfected in HEK293 cells at 10 uM incubated for 6 hrs by Western blot analysis relative to control; assay type: cell-based
[18] = target: T2, Transcriptional enhancer factor TEF-4; experiment: Binding affinity to human TEAD2 (217 to 447 residues) expressed in Escherichia coli BL21 Star (DE3) assessed as change in melting temperature incubated for 2 hrs measuring scattering fluorescence by Nano Differential scanning fluorometry
[19] = target: T4, Transcriptional enhancer factor TEF-1; experiment: Binding affinity to human TEAD1 (209 to 426 residues) expressed in Escherichia coli BL21 Star (DE3) by surface plasmon resonance assay
[20] = target: T2, Transcriptional enhancer factor TEF-4; experiment: Binding affinity to human TEAD2 (217 to 447 residues) expressed in Escherichia coli BL21 Star (DE3) by surface plasmon resonance assay

T2 sequence (Q15562 whole entry, the tested form may be a part): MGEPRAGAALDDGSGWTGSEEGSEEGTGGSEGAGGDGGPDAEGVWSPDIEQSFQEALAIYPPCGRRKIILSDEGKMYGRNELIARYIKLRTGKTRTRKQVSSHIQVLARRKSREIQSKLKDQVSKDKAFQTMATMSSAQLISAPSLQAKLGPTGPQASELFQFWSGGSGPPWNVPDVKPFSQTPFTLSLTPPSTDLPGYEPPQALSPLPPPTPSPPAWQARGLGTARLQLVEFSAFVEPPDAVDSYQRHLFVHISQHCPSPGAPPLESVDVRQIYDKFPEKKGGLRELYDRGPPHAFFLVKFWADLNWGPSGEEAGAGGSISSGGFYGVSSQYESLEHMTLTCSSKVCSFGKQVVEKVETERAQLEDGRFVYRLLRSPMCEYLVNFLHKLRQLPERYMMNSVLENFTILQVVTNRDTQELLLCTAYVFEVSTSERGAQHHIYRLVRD
T3 sequence (Q15561 whole entry): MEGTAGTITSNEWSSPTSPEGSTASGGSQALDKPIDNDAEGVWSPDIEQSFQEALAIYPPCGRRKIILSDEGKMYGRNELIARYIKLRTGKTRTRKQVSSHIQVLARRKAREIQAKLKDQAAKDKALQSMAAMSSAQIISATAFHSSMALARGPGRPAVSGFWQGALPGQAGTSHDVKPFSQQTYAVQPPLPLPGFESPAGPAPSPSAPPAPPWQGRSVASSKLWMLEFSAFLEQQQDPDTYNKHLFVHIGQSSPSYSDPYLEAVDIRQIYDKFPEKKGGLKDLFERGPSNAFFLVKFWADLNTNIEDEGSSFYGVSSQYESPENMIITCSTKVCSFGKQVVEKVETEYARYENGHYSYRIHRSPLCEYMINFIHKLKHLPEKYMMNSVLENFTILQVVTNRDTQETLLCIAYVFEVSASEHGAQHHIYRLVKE
T4 sequence (P28347 whole entry, the tested form may be a part): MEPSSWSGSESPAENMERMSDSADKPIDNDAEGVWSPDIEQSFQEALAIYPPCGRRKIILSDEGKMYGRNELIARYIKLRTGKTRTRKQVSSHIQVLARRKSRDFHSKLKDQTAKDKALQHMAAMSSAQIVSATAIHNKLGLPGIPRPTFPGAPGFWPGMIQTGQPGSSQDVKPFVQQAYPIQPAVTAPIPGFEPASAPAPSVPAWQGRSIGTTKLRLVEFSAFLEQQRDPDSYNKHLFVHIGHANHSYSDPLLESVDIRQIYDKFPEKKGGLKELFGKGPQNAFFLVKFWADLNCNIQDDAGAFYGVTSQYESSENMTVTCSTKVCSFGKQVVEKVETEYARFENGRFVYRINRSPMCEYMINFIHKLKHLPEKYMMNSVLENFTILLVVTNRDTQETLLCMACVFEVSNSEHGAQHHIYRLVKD
T1 sequence (Q99594 whole entry, the tested form may be a part): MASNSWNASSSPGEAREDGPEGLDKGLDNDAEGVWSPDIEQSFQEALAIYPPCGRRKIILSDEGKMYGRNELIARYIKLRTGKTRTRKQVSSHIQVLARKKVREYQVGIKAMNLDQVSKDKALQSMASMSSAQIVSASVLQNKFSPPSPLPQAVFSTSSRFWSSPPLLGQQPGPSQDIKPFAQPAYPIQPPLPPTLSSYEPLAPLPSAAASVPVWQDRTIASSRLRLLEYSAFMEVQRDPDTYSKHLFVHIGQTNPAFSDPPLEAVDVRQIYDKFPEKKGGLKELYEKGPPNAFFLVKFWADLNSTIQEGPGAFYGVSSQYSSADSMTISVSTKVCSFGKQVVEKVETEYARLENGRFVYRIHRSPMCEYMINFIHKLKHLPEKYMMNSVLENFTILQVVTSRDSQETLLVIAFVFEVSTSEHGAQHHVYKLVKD

IC50 [1]: 24 nM | ΔTm [3]: 5.1 °C | IC50 [4]: 4 nM | ΔTm [5]: -3.7 °C | IC50 [6]: 13 nM | inhibition [7]: 12% | ΔTm [9]: 13.4 °C | ΔTm [10]: 0.4 °C | inhibition [11]: 3.8% | inhibition [12]: 55.7% | Kd [13]: 5400 nM | inhibition [14]: 24% | Kd [15]: 1400 nM | inhibition [16]: 81% | inhibition [17]: 90% | ΔTm [18]: 3.7 °C | Kd [19]: 120 nM | Kd [20]: 4600 nM
Compound: Cn1cc2c3cc(C(=O)O)ccc3n(-c3ccc(C(F)(F)F)cc3)c2n1
IC50 [2]: 11 nM | IC50 [8]: 10 nM | IC50 (SW-620): > 30000 nM | Activity (NCI-H226): Active
